Bridge positions count the residues as written; N and C are the ends. Ends that are not written are not given here.
Legend:
primary glial cells = assay: Gene delivery to primary cultures of glial cells; assay type: cell-based, rat
Protocol: Primary cultures of glial cells were established from the cortices of 20-day old embryonic Wistar rats. Individual cells were collected as described above. The cells were plated at a density of 4×10^5 viable cells/cm^2 on poly-L-lysine/laminin coated dishes and grown to confluence for 7 days in DMEM/F12 medium supplemented with 10% FCS. The day before transfection, the cells were detached and plated into coated microplates at a density of 2.5×10^4 cells per well. Gene delivery complexes were also tested on primary cultures of cortical neurons and glial cells in a similar fashion. […] Four hours later, an equal volume of DMEM-F12/N2 was added. One to two days after transfection, the cell culture medium was removed and the cells were rinsed in phosphate-buffered saline (PBS). Enough Reporter Lysis Buffer (Promega, Wisconsin, Md., USA) to cover the bottom surface was added to each well (50 μl/well for 48-well plates). After one freeze-thaw cycle, the lysates were tested for luciferase activity using the Luciferase Assay System (Promega) and a single-tube luminometer (Berthold Lumat L B 9507, Bad Wildbad, Germany). The total protein concentration of each lysate was determined using the DC Protein assay (Bio-Rad, Hercules, Calif., USA). The results were expressed in relative light units (RLU) per milligram of total protein.

primary cortical neurons = assay: Gene delivery to primary cultures of cortical neurons; assay type: cell-based, rat
Protocol: Primary cultures of neurons were established from the cortices of embryonic Wistar rats at gestational day 20. Cortices freed of meninges were dissected and individual cells were dispersed mechanically by trituration of minced tissue in 3 ml DMEM medium supplemented with 2% FBS. The suspension was allowed to settle in a centrifuge tube. The cells in the supernatant were collected by centrifugation and resuspended gently in DMEM with 10% FBS. Viability of the cells was assessed prior to plating using trypan blue. Cells were plated onto microplates pre-coated with poly-L-lysine/laminin at a density of 7.5×10^5 viable cells/cm^2. After a two-hour incubation period to allow neurons to attach, the medium and unattached cells were removed and replaced by serum-free DMEM/F12 medium with 1% N2 supplement (Invitrogen, Carlsbad, Calif., USA). The cell were then incubated at 37° C. in 5% CO2 in a humidified incubator. After 2–5 days of culture, the neuron cells were used for transfection experiments. Gene delivery complexes were also tested on primary cultures of cortical neurons and glial cells in a similar fashion. […] Four hours later, an equal volume of DMEM-F12/N2 was added. One to two days after transfection, the cell culture medium was removed and the cells were rinsed in phosphate-buffered saline (PBS). Enough Reporter Lysis Buffer (Promega, Wisconsin, Md., USA) to cover the bottom surface was added to each well (50 μl/well for 48-well plates). After one freeze-thaw cycle, the lysates were tested for luciferase activity using the Luciferase Assay System (Promega) and a single-tube luminometer (Berthold Lumat L B 9507, Bad Wildbad, Germany). The total protein concentration of each lysate was determined using the DC Protein assay (Bio-Rad, Hercules, Calif., USA). The results were expressed in relative light units (RLU) per milligram of total protein.

Erk1 and Erk2 = assay: Phospho-Erk1/Erk2 (p44/p42 MAPK) immunoblot in PC12 cells; assay type: cell-based, rat; settings: for effect of TrkA inhibitor pre-treatment on NL4- and NL4-10K-induced phosphorylation of Erk1 and Erk2: 100 nM K-252a or 10 μM AG879, 10 min pre-incubation
Protocol: (§1) Immunoblotting experiments were conducted to test whether the chimeric polypeptides could, like NGF, induce autophosphorylation of TrkA and activation of its signal transduction pathways. PC12 cells were seeded in 6-well plates at a density of 2×10^6 cells/well and cultured in RPMI 1640 containing 0.5% FBS and 0.25% horse serum for 2 days. The low serum concentrations were necessary to reduce the basal levels of phosphorylation. The medium was refreshed two hours before beginning treatment. The cells were incubated with the polypeptides or NGF in serum-free medium for 15–20 min. The cells were then washed in PBS, lysed, and sonicated. The cell lysates were resolved by SDS-PAGE and transferred to a nitrocellulose membrane for immunoblotting. The primary antibodies used include Phospho-TrkA (Tyr490) antibody, Phospho-p44/p42 MAPK (Thr202/Tyr204) monoclonal antibody, and Phospho-Akt (Ser473) monoclonal antibody, all obtained from Cell Signaling Technology (Beverly, Mass., USA). Colorimetric detection was performed by standard techniques after using horse-radish peroxidase-conjugated secondary antibodies. In some experiments, TrkA tyrosine kinase inhibitors K-252a or AG879 (both from Calbiochem, La Jolla, Calif., USA) were used. In these cases, PC12 cells were incubated with 100 nM K-252a or 10 μM AG879 before addition of polypeptides or NGF.

[1] = test system: PC12 (TrkA and p75^NTR positive) cells; assay: Gene delivery in vitro (pCAGluc luciferase reporter), PC12 cells; assay type: cell-based, rat; settings: for dose-response of transfection efficiency with increasing amount of peptide: 1 μg pCAGluc/well, 100 μM chloroquine
Protocol: A PC12 (rat pheochromocytoma) cell line was obtained from ATCC (American Type Culture Collection, Manassas, Va., USA) and cultured in RPMI-1640 medium supplemented with 10% fetal bovine serum (FBS) and 5% horse serum. PC12 cells are known to express TrkA and p75^NTR receptors. A COS7 (African green monkey kidney fibroblast) cell line was obtained from ATCC and cultured in Dulbecco's modified Eagle's medium (DMEM) supplemented with 10% fetal bovine serum, 50 U/ml penicillin, and 50 μg/ml streptomycin. The cells were maintained in a 37° C., 5% CO2, humidified incubator.
To determine the transfection efficiencies of our nucleic acid delivery systems, we employ a reporter plasmid, pCAGluc (a gift from Yoshiharu Matsuura, National Institute of Infectious Diseases, Tokyo, Japan), encoding firefly luciferase under the control of the composite promoter, CAG. CAG comprises the chicken β-actin promoter and the cytomegalovirus immediate early enhancer.
TrkA-targeting gene delivery complexes were tested for transfection efficiency in vitro in PC12 (TrkA and p75^NTR positive) cells and COS7 (neurotrophin receptor negative) cells. The cells were grown to 50–70% confluency in microplate wells (24-, 48-, or 96-well plates). The gene delivery complexes were prepared according to specifications presented for each example. Transfection was accomplished by replacing the serum-enriched medium with half the usual volume of reduced-serum medium, Opti-MEM (Invitrogen), containing the gene delivery complexes. Where specifically mentioned, 100 μM of chloroquine was also added to help the complexes escape from endosomes. After four hours of incubation, the cells were restored to the normal medium volume and serum concentration, either by topping up with medium containing twice the usual serum concentration (RPMI-1640 with 20% FBS and 10% horse serum for PC12) or by completely replacing the medium.
One to two days after transfection, the cell culture medium was removed and the cells were rinsed in phosphate-buffered saline (PBS). Enough Reporter Lysis Buffer (Promega, Wisconsin, Md., USA) to cover the bottom surface was added to each well (50 μl/well for 48-well plates). After one freeze-thaw cycle, the lysates were tested for luciferase activity using the Luciferase Assay System (Promega) and a single-tube luminometer (Berthold Lumat L B 9507, Bad Wildbad, Germany). The total protein concentration of each lysate was determined using the DC Protein assay (Bio-Rad, Hercules, Calif., USA). The results were expressed in relative light units (RLU) per milligram of total protein.

Akt = assay: Phospho-Akt immunoblot in PC12 cells; assay type: cell-based, rat; settings: 5 μM peptide, 20 min
Protocol: as §1

PC12 cells = assay: PC12 cell survival assay (MTT, serum-free medium); assay type: cell-based, rat; settings: differentiated PC12, serum and NGF deprived 4 days; 0.125 to 2.5 μM; NGF 10 ng/ml control
Protocol: Undifferentiated or differentiated (by 6-day treatment with 10 ng/ml NGF) PC12 cells seeded onto collagen-coated 96-well plates were exposed to serum-free RPMI-1640 medium containing either NGF or various concentrations of chimeric polypeptides. After 3–4 days of incubation, cell viability was measured by the standard MTT assay. Cell survival was expressed as a percentage of the viability of the NGF-treated control.

plasmid DNA [2] = assay: DNA retardation assay (agarose gel electrophoresis); assay type: binding
Protocol: This assay qualitatively assesses the ability of a polypeptide or polycation to bind to DNA and thus to retard its migration (by decreasing its charge/mass ratio) through an agarose gel under electrophoresis. For a range of N/P ratios, polypeptide was added to 0.1 μg of plasmid DNA made up to 20 μl with either HEPES-buffered saline (HBS, 150 mM NaCl, 29 mM HEPES, pH 7.3) or 5% glucose. The mixtures were vortexed and incubated at room temperature for 30 minutes before being subjected to electrophoresis in a 0.8–1.0% Tris-borate-EDTA agarose gel stained with ethidium bromide for visualization under ultraviolet light.

TrkA = target: T1, TrkA (Rattus norvegicus, UniProt P35739); assay: Phospho-TrkA immunoblot in PC12 cells; assay type: cell-based; settings: 5 μM peptide, 20 min
T1 construct: endogenous in cells; host or cells: PC12 (rat pheochromocytoma, ATCC)
Protocol: as §1

plasmid DNA [3] = assay: Atomic force microscopy of polypeptide-DNA complexes; assay type: physicochemical; settings: N/P ratio of 10
Protocol: DNA samples, polypeptide-DNA complexes, and polypeptide-polycation-DNA complexes were prepared with a DNA concentration of 0.02 mg/ml. The samples were diluted ten-fold in HPLC-grade water, and 20 μl of each sample was deposited onto mica discs. After one minute, the mica discs were washed with HPLC-grade water and dried in a stream of filtered air. Images were acquired on a Nanoscope IIIa atomic force microscope (Digital Instruments, Santa Barbara, Calif., USA) operating in tapping mode in air, using Nanoprobe Silicon tips (Digital Instruments).

[4] = 0.25 μg/well pCAGluc, PEI600-based complexes
[5] = pCAGluc/SPKR4BL1-2 without PEI600, 0.25 μg/well

T1 sequence (P35739 33-799): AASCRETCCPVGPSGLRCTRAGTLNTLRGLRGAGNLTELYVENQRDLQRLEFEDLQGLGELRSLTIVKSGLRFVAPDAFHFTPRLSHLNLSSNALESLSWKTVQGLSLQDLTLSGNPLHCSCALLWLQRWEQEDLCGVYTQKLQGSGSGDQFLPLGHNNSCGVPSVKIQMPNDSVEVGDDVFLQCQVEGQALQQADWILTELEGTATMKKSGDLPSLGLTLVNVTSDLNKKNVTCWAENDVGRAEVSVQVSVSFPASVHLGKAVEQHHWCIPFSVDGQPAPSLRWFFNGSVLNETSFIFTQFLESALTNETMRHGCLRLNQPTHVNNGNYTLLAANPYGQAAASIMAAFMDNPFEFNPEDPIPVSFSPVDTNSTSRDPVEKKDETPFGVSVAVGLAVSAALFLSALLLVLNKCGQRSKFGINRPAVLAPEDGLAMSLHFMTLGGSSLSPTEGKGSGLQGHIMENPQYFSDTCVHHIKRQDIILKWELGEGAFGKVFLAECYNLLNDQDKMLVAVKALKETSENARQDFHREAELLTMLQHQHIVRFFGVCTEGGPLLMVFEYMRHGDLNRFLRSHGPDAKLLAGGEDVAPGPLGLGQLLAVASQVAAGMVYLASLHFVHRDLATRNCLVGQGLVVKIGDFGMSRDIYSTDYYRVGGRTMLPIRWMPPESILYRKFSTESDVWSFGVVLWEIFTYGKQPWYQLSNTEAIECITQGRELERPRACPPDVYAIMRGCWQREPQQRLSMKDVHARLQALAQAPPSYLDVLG

SPKRSPKRSPKRSPKR (artificial sequence SPKR4) [(SPKR)4, reference compound]
transgene expression (in words) (primary glial cells; [4]): enhances transgene expression | transgene expression (in words) (primary cortical neurons; [4]): enhances transgene expression

CC(C)(C)c1cc(/C=C(\C#N)C(N)=S)cc(C(C)(C)C)c1O [AG879, reference compound]
effect of TrkA inhibitor pre-treatment on NL4- and NL4-10K-induced phosphorylation of Erk1 and Erk2 (Erk1 and Erk2): greatly reduced

COC(=O)[C@@]1(O)C[C@H]2O[C@]1(C)n1c3ccccc3c3c4c(c5c6ccccc6n2c5c31)C(=O)NC4 [K-252a, reference compound]
effect of K-252a on Erk phosphorylation induced by 8 μM SPKR4NL1-2 (Erk1 and Erk2; 0, 10, 20, 50 and 100 nM K-252a, 10 min pre-incubation): reduced and eventually eliminated | effect of TrkA inhibitor pre-treatment on NL4- and NL4-10K-induced phosphorylation of Erk1 and Erk2 (Erk1 and Erk2): greatly reduced

NGF: nerve growth factor, neurotrophin; competitor and positive control
effect of added NGF on transfection by (SPKR)4/DNA/PEI600 ([1]; NGF 200 ng/ml): no significant effect | effect of added NGF on transfection by SPKR4NL1-2/DNA/PEI600 ([1]; NGF 200 ng/ml during transfection): greatly reduces the transfection efficiency

KKKKKKKKKK (artificial sequence lysine 10) [10K, ten consecutive lysine residues, reference compound]
dose-response of transfection efficiency with increasing amount of peptide [1]: Neither NL4 (targeting domain only) nor 10K (DNA-binding domain only) nor a mixture of the two exhibited this dose-responsive trend | reduction of efficiency of NL4-10K/pCAGluc gene delivery by excess free competitor ([1]; competitor present during transfection, complexes at N/P ratio of 5, 100 μM chloroquine): did not have a significant effect

NL4: loop 4 of NGF and the flanking β-sheet sequences, amino acids 80–108; targeting domain only (CTTTHTFVKALTMDGKQAAWRFIRIDTAC; disulfide 1-29)
activation (phosphorylation) of Akt (Akt): induced activation | cell survival rate as % of optimal NGF-promoted survival (PC12 cells): 68–109% | DNA binding / retardation of DNA migration (in words) (plasmid DNA [2]): does not retard DNA migration | dose-response of transfection efficiency with increasing amount of peptide [1]: Neither NL4 (targeting domain only) nor 10K (DNA-binding domain only) nor a mixture of the two exhibited this dose-responsive trend | activation (phosphorylation) of Erk 1 and Erk 2 (Erk1 and Erk2; 5 μM peptide, 20 min): induced activation | activation (phosphorylation) of TrkA (TrkA): induced activation

B1: SPKR4BL1-2: chimeric protein analogous to SPKR4NL1-2 with loops 1 and 2 of BDNF (aa 22–74) to bind TrkB (protein)
chain: MGHHHHHHHHHHSSGHIEGRHMSPKRSPKRSPKRSPKRGGTYLSEDELKAAEAAFKRHNPTGSCSISEWVTAADKKTAVDMSGGTVTVLEKVPVSKGQLKQYFYETKCNPMGYTKEG
modifications: SPKR4BL1-2
N/P ratio at which plasmid DNA is completely retarded (complex immobile) (plasmid DNA [2]; 0.1 μg plasmid DNA, agarose gel): 2 N/P ratio | peptide/DNA amount equivalent to the N/P ratio of complete retardation (plasmid DNA [2]; N/P ratio of 2): 0.8 nmol/ug DNA | diameter of condensed plasmid DNA particles (plasmid DNA [3]): under 200 nm | transgene expression relative to PEI600/DNA (primary glial cells; [5]): 50 times | transgene expression relative to naked DNA (primary glial cells; [5]): 180 times | increase of transgene expression with increasing SPKR4BL1-2 (primary cortical neurons; PEI600 fixed at N/P ratio of 10, 0.25 μg/well pCAGluc, highest ratio used): up to 500 fold

Source: patent US7205387B2, “Recombinant polypeptide useful for neurotrophin receptor mediated gene delivery and as neurotrophin agonist” (Agency for Science, Technology and Research, priority 2003, dated 2007)
